Assay results as given in patent US6472348B1, “Pyridone derivatives and herbicides” (Kumiai Chemical Industry Co., Ltd., priority 1996, dated 2002).

Columns and labels:
Type in all cases: in vivo
barnyardgrass (Ec) [1] = experiment: Test Example 1: herbicidal effects by paddy field soil treatment; conditions: 100 g of the active ingredient per 10 ares, 21st day after the application, index 0-5 of Table 47;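 also: grade of growth control; 5 = at least 90%; 4 = 70 to 90%; 3 = 50 to 70%; 2 = 30 to 50%; 1 = 10 to 30%; 0 = under 10%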
Procedure, shortened: (§1)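 Scoring of herbicidal effect came 21 days after application of 100 g active ingredient per 10 ares to flooded (3 cm) paddy-soil pots sown with barnyardgrass, monochoria and bulrush, kept in a greenhouse.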

bulrush (Sc) = experiment: as above; conditions: 100 g of the active ingredient per 10 ares, 21st day after the application, index 0-5 of Table 47;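 also: grade of growth control; 5 = at least 90%; 4 = 70 to 90%; 3 = 50 to 70%; 2 = 30 to 50%; 1 = 10 to 30%; 0 = under 10%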
Procedure, shortened: as §1

monochoria (Mo) = experiment: as above; conditions: 100 g of the active ingredient per 10 ares, 21st day after the application, index 0-5 of Table 47;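 also: grade of growth control; 5 = at least 90%; 4 = 70 to 90%; 3 = 50 to 70%; 2 = 30 to 50%; 1 = 10 to 30%; 0 = under 10%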
Procedure, shortened: as §1

Digitaria ciliaris (Di) = experiment: Test Example 2: herbicidal effects by upland field soil treatment; conditions: 100 g of the active ingredient per 10 ares, evaluated on the 21st day after application;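 also: grade of growth control; 5 = at least 90%; 4 = 70 to 90%; 3 = 50 to 70%; 2 = 30 to 50%; 1 = 10 to 30%; 0 = under 10%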
Text: (§2) (Test on Herbicidal Effects by Upland Field Soil Treatment)

barnyardgrass (Ec) [2] = experiment: as above; conditions: 100 g of the active ingredient per 10 ares, evaluated on the 21st day after application
Text: as §2

[3] = test system: common lambsquarters (Ch); experiment: as above; conditions: 100 g of the active ingredient per 10 ares, evaluated on the 21st day after application
Text: as §2

pale smartweed (Po) [4] = experiment: as above; conditions: 100 g of the active ingredient per 10 ares, evaluated on the 21st day after application
Text: as §2

rice flatsedge (Ci) [5] = experiment: as above; conditions: 100 g of the active ingredient per 10 ares, evaluated on the 21st day after application
Text: as §2

slender amaranth (Am) [6] = experiment: as above; conditions: 100 g of the active ingredient per 10 ares, evaluated on the 21st day after application
Text: as §2

Diaitaria ciliaris (Di) = experiment: Test Example 3: herbicidal effects by upland field foliage treatment; parameters: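 grade of growth control; 5 = at least 90%; 4 = 70 to 90%; 3 = 50 to 70%; 2 = 30 to 50%; 1 = 10 to 30%; 0 = under 10%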; conditions: 100 g active ingredient per 10 ares, evaluated 14th day after treatment
Procedure, shortened: (§3)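 Using plants cultured for 2 weeks in a greenhouse from seed sown in soil-covered sand (pots 120 cm^2), the compounds were applied to foliage, and weed control was graded by standard criteria 14 days thereafter.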

barnyardgrass (Ec) [7] = experiment: as above; parameters: scale not given here; conditions: 100 g active ingredient per 10 ares, evaluated 14th day after treatment
Procedure, shortened: as §3

[8] = test system: common lambsquarters (Ch); experiment: as above; parameters: scale not given here; conditions: 100 g active ingredient per 10 ares, evaluated 14th day after treatment
Procedure, shortened: as §3

pale smartweed (Po) [9] = experiment: as above; parameters: scale not given here; conditions: 100 g active ingredient per 10 ares, evaluated 14th day after treatment
Procedure, shortened: as §3

rice flatsedge (Ci) [10] = experiment: as above; parameters: scale not given here; conditions: 100 g active ingredient per 10 ares, evaluated 14th day after treatment
Procedure, shortened: as §3

slender amaranth (Am) [11] = experiment: as above; parameters: scale not given here; conditions: 100 g active ingredient per 10 ares, evaluated 14th day after treatment
Procedure, shortened: as §3

cotton (Go) = experiment: Test Example 4: crop plant selectivity by upland field soil treatment (cotton), phytotoxicity; parameters: scale not given here; conditions: dose 6.3 g ai/10 a, evaluated 21st day after application
Procedure, shortened: (§4)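 Upland soil treatment: crop and weed seeds in sand pots under a soil cover, compound applied to soil, greenhouse-grown, rated visually 21 d later.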

China jute (Ab) [12] = experiment: Test Example 4: crop plant selectivity by upland field soil treatment (cotton), herbicidal effects; parameters: scale not given here; conditions: dose 6.3 g ai/10 a, evaluated 21st day after application
Procedure, shortened: as §4

[13] = test system: common lambsquarters (Ch); experiment: as above; parameters: scale not given here; conditions: dose 6.3 g ai/10 a, evaluated 21st day after application
Procedure, shortened: as §4

green foxtail (Se) [14] = experiment: as above; parameters: scale not given here; conditions: dose 6.3 g ai/10 a, evaluated 21st day after application
Procedure, shortened: as §4

pale smartweed (Po) [15] = experiment: as above; parameters: scale not given here; conditions: dose 6.3 g ai/10 a, evaluated 21st day after application
Procedure, shortened: as §4

slender amaranth (Am) [16] = experiment: as above; parameters: scale not given here; conditions: dose 6.3 g ai/10 a, evaluated 21st day after application
Procedure, shortened: as §4

wheat (Tr) = experiment: Test Example 5: crop plant selectivity by upland field soil treatment (wheat), phytotoxicity; parameters: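 grade of crop injury; 5 = at least 90%; 4 = 70 to 90%; 3 = 50 to 70%; 2 = 30 to 50%; 1 = 10 to 30%; 0 = under 10%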; conditions: dose 6.3 g ai/10a, 21st day after application
Procedure, shortened: (§5)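 Scores are visual ratings of herbicidal effect or wheat phytotoxicity, recorded on the 21st day after soil treatment of pots sown with wheat and weeds and kept in a greenhouse.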

China jute (Ab) [17] = experiment: Test Example 5: crop plant selectivity by upland field soil treatment (wheat), herbicidal effects; parameters: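 grade of growth control; 5 = at least 90%; 4 = 70 to 90%; 3 = 50 to 70%; 2 = 30 to 50%; 1 = 10 to 30%; 0 = under 10%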; conditions: dose 6.3 g ai/10a, 21st day after application
Procedure, shortened: as §5

[18] = test system: common lambsquarters (Ch); experiment: as above; parameters: scale not given here; conditions: dose 6.3 g ai/10a, 21st day after application
Procedure, shortened: as §5

green foxtail (Se) [19] = experiment: as above; parameters: scale not given here; conditions: dose 6.3 g ai/10a, 21st day after application
Procedure, shortened: as §5

pale smartweed (Po) [20] = experiment: as above; parameters: scale not given here; conditions: dose 6.3 g ai/10a, 21st day after application
Procedure, shortened: as §5

slender amaranth (Am) [21] = experiment: as above; parameters: scale not given here; conditions: dose 6.3 g ai/10a, 21st day after application
Procedure, shortened: as §5

soybean (Gl) = experiment: Test Example 6: crop plant selectivity by upland field soil treatment (soybean), phytotoxicity; parameters: scale not given here; conditions: dose 6.3 g ai/10a, 21st day after application
Procedure, shortened: (§6)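 Seeds are sown in sand and covered with soil. The soil is treated with test compound. Pots are kept in a greenhouse. Weed control and soybean damage are rated visually 21 days after application.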

China jute (Ab) [22] = experiment: Test Example 6: crop plant selectivity by upland field soil treatment (soybean), herbicidal effects; parameters: scale not given here; conditions: dose 6.3 g ai/10a, 21st day after application
Procedure, shortened: as §6

[23] = test system: common lambsquarters (Ch); experiment: as above; parameters: scale not given here; conditions: dose 6.3 g ai/10a, 21st day after application
Procedure, shortened: as §6

green foxtail (Se) [24] = experiment: as above; parameters: scale not given here; conditions: dose 6.3 g ai/10a, 21st day after application
Procedure, shortened: as §6

pale smartweed (Po) [25] = experiment: as above; parameters: scale not given here; conditions: dose 6.3 g ai/10a, 21st day after application
Procedure, shortened: as §6

slender amaranth (Am) [26] = experiment: as above; parameters: scale not given here; conditions: dose 6.3 g ai/10a, 21st day after application
Procedure, shortened: as §6

corn (Ze) = experiment: Test Example 7: crop plant selectivity by upland field soil treatment (corn), phytotoxicity; parameters: scale not given here; conditions: dose 6.3 g ai/10a, 21st day after application
Procedure, shortened: (§7)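 Values are ratings of herbicidal effect and phytotoxicity on a standard scale, taken 21 days after application. Test species were sown together with corn in sand-filled pots, covered with soil, and grown in a greenhouse.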

China jute (Ab) [27] = experiment: Test Example 7: crop plant selectivity by upland field soil treatment (corn), herbicidal effects; parameters: scale not given here; conditions: dose 6.3 g ai/10a, 21st day after application
Procedure, shortened: as §7

[28] = test system: common lambsquarters (Ch); experiment: as above; parameters: scale not given here; conditions: dose 6.3 g ai/10a, 21st day after application
Procedure, shortened: as §7

green foxtail (Se) [29] = experiment: as above; parameters: scale not given here; conditions: dose 6.3 g ai/10a, 21st day after application
Procedure, shortened: as §7

pale smartweed (Po) [30] = experiment: as above; parameters: scale not given here; conditions: dose 6.3 g ai/10a, 21st day after application
Procedure, shortened: as §7

slender amaranth (Am) [31] = experiment: as above; parameters: scale not given here; conditions: dose 6.3 g ai/10a, 21st day after application
Procedure, shortened: as §7

SMILES	Herbicidal effects Ec (barnyardgrass (Ec) [1])	Herbicidal effects Sc (bulrush (Sc))	Herbicidal effects Mo (monochoria (Mo))	Herbicidal effects Di (Digitaria ciliaris (Di))	Herbicidal effects Ec (barnyardgrass (Ec) [2])	Herbicidal effects Ch [3]	Herbicidal effects Po (pale smartweed (Po) [4])	Herbicidal effects Ci (rice flatsedge (Ci) [5])	Herbicidal effects Am (slender amaranth (Am) [6])	Herbicidal effects Di (Diaitaria ciliaris (Di))	Herbicidal effects Ec (barnyardgrass (Ec) [7])	Herbicidal effects Ch [8]	Herbicidal effects Po (pale smartweed (Po) [9])	Herbicidal effects Ci (rice flatsedge (Ci) [10])	Herbicidal effects Am (slender amaranth (Am) [11])	Phytotoxicity Go (cotton (Go))	Herbicidal effects Ab (China jute (Ab) [12])	Herbicidal effects Ch [13]	Herbicidal effects Se (green foxtail (Se) [14])	Herbicidal effects Po (pale smartweed (Po) [15])	also measured
COc1cc(-c2ccc(C(F)(F)F)n(C)c2=O)c(Cl)cc1Cl [Compound 1-205]	5	5	5	5	5	5	5	5	5	5	5	5	5	5	5	1	4	5	5	5	Herbicidal effects Am (slender amaranth (Am) [16]): 5; Phytotoxicity Tr (wheat (Tr)): 1; Herbicidal effects Ab (China jute (Ab) [17]): 4; Herbicidal effects Ch [18]: 5; Herbicidal effects Se (green foxtail (Se) [19]): 5; Herbicidal effects Po (pale smartweed (Po) [20]): 5; Herbicidal effects Am (slender amaranth (Am) [21]): 5; Phytotoxicity Gl (soybean (Gl)): 1; Herbicidal effects Ab (China jute (Ab) [22]): 4; Herbicidal effects Ch [23]: 5; Herbicidal effects Se (green foxtail (Se) [24]): 5; Herbicidal effects Po (pale smartweed (Po) [25]): 5; Herbicidal effects Am (slender amaranth (Am) [26]): 5; Phytotoxicity Ze (corn (Ze)): 2; Herbicidal effects Ab (China jute (Ab) [27]): 4; Herbicidal effects Ch [28]: 5; Herbicidal effects Se (green foxtail (Se) [29]): 5; Herbicidal effects Po (pale smartweed (Po) [30]): 5; Herbicidal effects Am (slender amaranth (Am) [31]): 5
COCCOCOc1cc(-c2ccc(C(F)(F)F)n(C)c2=O)c(F)cc1Cl [Compound 1-207]	5	5	5	5	5	5	5	5	5	5	5	5	5	5	5	0	5	5	5	5	Herbicidal effects Am (slender amaranth (Am) [16]): 5; Phytotoxicity Tr (wheat (Tr)): 1; Herbicidal effects Ab (China jute (Ab) [17]): 5; Herbicidal effects Ch [18]: 5; Herbicidal effects Se (green foxtail (Se) [19]): 5; Herbicidal effects Po (pale smartweed (Po) [20]): 5; Herbicidal effects Am (slender amaranth (Am) [21]): 5; Phytotoxicity Gl (soybean (Gl)): 1; Herbicidal effects Ab (China jute (Ab) [22]): 5; Herbicidal effects Ch [23]: 5; Herbicidal effects Se (green foxtail (Se) [24]): 5; Herbicidal effects Po (pale smartweed (Po) [25]): 5; Herbicidal effects Am (slender amaranth (Am) [26]): 5; Phytotoxicity Ze (corn (Ze)): 1; Herbicidal effects Ab (China jute (Ab) [27]): 5; Herbicidal effects Ch [28]: 5; Herbicidal effects Se (green foxtail (Se) [29]): 5; Herbicidal effects Po (pale smartweed (Po) [30]): 5; Herbicidal effects Am (slender amaranth (Am) [31]): 5
